{"source": "paper PMC13493820", "about": "“Versatile Glycan Probes for Multiplatform Investigation of Glycan Interactions with Proteins, Viruses, and Cells” (Nature Communications, 2026)", "target": "T1, rhesus Langerin (Macaca mulatta, UniProt F7HNH2)", "T1 construct": "gene CD207; array protein; construct only in supplement", "T1 sequence (F7HNH2 1-328)": "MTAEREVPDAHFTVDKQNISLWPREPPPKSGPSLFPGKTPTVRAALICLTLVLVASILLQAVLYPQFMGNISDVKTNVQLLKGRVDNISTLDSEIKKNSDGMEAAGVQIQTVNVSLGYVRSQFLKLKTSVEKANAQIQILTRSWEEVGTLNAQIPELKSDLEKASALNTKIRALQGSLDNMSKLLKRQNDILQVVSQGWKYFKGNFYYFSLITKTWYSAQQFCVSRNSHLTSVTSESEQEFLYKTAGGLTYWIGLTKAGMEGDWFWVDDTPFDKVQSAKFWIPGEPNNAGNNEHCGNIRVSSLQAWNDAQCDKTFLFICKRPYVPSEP", "test": "glycan microarray", "assay_type": "binding", "conditions": "labelled compound (FAA probe, immobilised)", "data": [{"smiles": "CC(=O)N[C@H]1[C@H](O[C@H]2[C@H](O)[C@@H](NC(C)=O)C(O)O[C@@H]2CO)O[C@H](CO)[C@@H](O[C@@H]2O[C@H](CO[C@H]3O[C@H](CO[C@H]4O[C@H](CO)[C@@H](O)[C@H](O)[C@@H]4O[C@H]4O[C@H](CO)[C@@H](O)[C@H](O)[C@@H]4O)[C@@H](O)[C@H](O[C@H]4O[C@H](CO)[C@@H](O)[C@H](O)[C@@H]4O[C@H]4O[C@H](CO)[C@@H](O)[C@H](O)[C@@H]4O)[C@@H]3O)[C@@H](O)[C@H](O[C@H]3O[C@H](CO)[C@@H](O)[C@H](O)[C@@H]3O[C@H]3O[C@H](CO)[C@@H](O)[C@H](O)[C@@H]3O[C@H]3O[C@H](CO)[C@@H](O)[C@H](O)[C@@H]3O)[C@@H]2O)[C@@H]1O", "note": "(stereo partly shown) [Man9GlcNAc2]", "values": [{"measurement": "glycan microarray", "value": "rhesus Langerin bound almost exclusively to Man9GlcNAc2"}]}]}
